Patent publication US20220106282A1, “TREATMENT FOR BREAST CANCER, INCLUDING TRIPLE-NEGATIVE BREAST CANCER” (priority 2018, published 2022)
Values joined by “and” are separate entries in the source; they are usually repeats but may differ in a detail not shown here. Equal entries are not always repeated. Marks after values point to notes of the source that are not given here.

Columns and labels:
[1] = test system: MCF-7 breast cancer cells; settings: RU 2619457; cited from earlier work
ovariectomized rats = test: Biochemical parameters of ovariectomized rats; format: in vivo, rat; settings: ovariectomised rats, EE 0.1 mg/kg bw
uterine body [2] = test: Hormonal effect: uterine body weight in tumor-bearing mice; format: in vivo, mouse; settings: Tamoxifen-1 group, 4 mg/kg
Description: To estimate the hormonal effect of the medicament, the weight of the uterine body without uterine horns was measured (Table 9).

[3] = test system: breast tumors in female FVB mice transgenic for HER-2/neu; test: Antitumor activity on model of multiple breast tumors in HER-2/neu transgenic mice; settings: for Average total volume of tumors in mice (M) / Average volume of tumors present at the beginning of the experiment (M): i.g. daily
Description: Two adenocarcinoma subtypes can be differentiated, in particular ER+, PR−, and ER−, PR− [2].
The study was carried out in female FVB mice transgenic for HER-2/neu by conventional category; the strain was obtained from the mouse bank Charles River Laboratories (Italy). At the beginning of the study the animals were 21-41 weeks old having weight of 25 to 30 g.
The study medicament was administered i.g. using a metal atraumatic gavage (with the procedure corresponds to the oral route of administration in clinical settings). The medicament was administered in a single daily dose (20 mg/kg of body weight) and 5-fold daily dose of 100 mg/kg of body weight. Ex tempore solutions of the medicament for administration were prepared in olive oil (refined olive oil supplemented with unrefined extra virgin olive oil available under Global Village “Clasico” trademark, lot L:183351116, expiry date 26 Apr. 2020, BAIEO, Spain). The administered volume was 0.1 ml per 10 g of a mouse body weight (0.2 ml of a ready-to-use formulation for a mouse of 20 g). The medicament administration was started 24 hours after the randomization. The duration of the administration course was 27-28 days.
This dose corresponds to a human daily dose of 20 mg/kg.
The control groups were given the olive oil (placebo).
The evaluation criteria included the clinical observation data, animals body weights, time of death (if applicable), tumor growth over time, pathomorphological examination data (verification of a neoplasm during autopsy, assessment of toxic effects by macroscopic presentation of changes in the internal organs).
The animals body weights were recorded before the first administration of the medicaments and then twice per week using a verified high-speed electronic laboratory balance Ohaus Scout Pro (USA) with a maximum load of 2000 g and a measurement step of 0.1 g.
Macroscopically detectable tumor nodes were measured in animals once per week during weighing process. Two linear dimensions including the largest one and the largest rectangular to the former were recorded for each of the nodes. The largest dimension was taken as a length (a) and the second dimension as a width (b) of the tumor nodes. A tumor volume was calculated by the expression as follows: […]
The efficacy of the therapy was assessed by recording a change in the average tumor volume, tumor growth inhibition (TGI), and the average total tumor volumes and its change over time in each of the mice.
The percent of tumor growth inhibition was calculated by the expression as follows:
TGI=(Vctrl−Vexp)/Vctrl×100(%),
where Vctrl is an average tumor volume in a control group, and Vexp is an average tumor volume in an experimental group.
The primary data from individual forms were transferred to Microsoft Excel 2007 books. The group arithmetic average (M) and standard deviation (m) were calculated for all quantitative data. The statistical analysis was performed using the statistical software GraphPad Prism 6.0. The differences between the groups were assessed using ANOVA regression analysis and the Fisher's exact test.

uterine body [4] = test: Hormonal effect: uterine body weight in tumor-bearing mice; format: in vivo, mouse; settings: Tamoxifen-1 group, 4 mg/kg; estrous phase E
[5] = as above; format: in vivo, mouse; settings: Tamoxifen-1 group, 4 mg/kg
[6] = first class: high solubility, high permeability, second class: low solubility; cited from earlier work
uterus = settings: literature / prior art; cited from earlier work
[7] = Tamoxifen group, dose 1.4 mg/kg, Day 6
[8] = Tamoxifen group, dose 1.4 mg/kg, Day 13
[9] = Tamoxifen group, dose 1.4 mg/kg, Day 20
[10] = Tamoxifen group, dose 1.4 mg/kg, Day 27
[11] = Tamoxifen group, dose 1.4 mg/kg, Day −1
[12] = Tamoxifen group, dose 1.4 mg/kg, Day 27 vs Day −1
[13] = Tamoxifen-1 group, 4 mg/kg i.g. daily, end of study

## C[C@H]1Oc2cc(OS(N)(=O)=O)ccc2C2=C1C1=CCC[C@H](OS(N)(=O)=O)[C@@]1(C)CC2 [3,17αβ-disulfamoyloxy-7β-methyl-D-homo-6-oxa-estra-1,3,5(10), 8,14-pentaen]
[1]
  Growth of MCF-7 breast cancer cells: inhibitor of the growth

## C#C[C@]1(O)CC[C@H]2[C@@H]3CCc4cc(O)ccc4[C@H]3CC[C@@]21C [EE, 17α-ethinyl estradiol, reference compound]
Ovariectomized rats
  Uterus weight: 164 ± 11 mg/100 g bw

## CC/C(=C(\c1ccccc1)c1ccc(OCCN(C)C)cc1)c1ccccc1 [Tamoxifen, reference compound]
Uterine body [2]; all mice
  Uterine body weight: 32 ± 2 mg
Uterine body [2]; estrous phase D
  Uterine body weight: 34 mg
[3]; [7]
  Average total volume of tumors in mice (M): 0.76 cm^3
  Average volume of tumors present at the beginning of the experiment (M): 0.26 cm^3
  TGI (average total tumor volume): −12%
  TGI (average tumor volume): 13%
[3]; [8]
  Average total volume of tumors in mice (M): 0.88 cm^3
  Average volume of tumors present at the beginning of the experiment (M): 0.3 cm^3
  TGI (average total tumor volume): −32%
  TGI (average tumor volume): 46%
[3]; [9]
  Average total volume of tumors in mice (M): 1.38 cm^3
  Average volume of tumors present at the beginning of the experiment (M): 0.47 cm^3
  TGI (average total tumor volume): 9%
  TGI (average tumor volume): 29%
[3]; [10]
  Average total volume of tumors in mice (M): 1.68 cm^3
  Average volume of tumors present at the beginning of the experiment (M): 0.58* cm^3
  TGI (average total tumor volume): 18%
[3]; [11]
  Average total volume of tumors in mice (M): 0.66 cm^3
  Average volume of tumors present at the beginning of the experiment (M): 0.23 cm^3
  TGI (average total tumor volume): −57%
  TGI (average tumor volume): −28%
[3]; [12]
  % of change from baseline (average total tumor volume): 155%
  % of change to the initial value (average tumor volume): 152%
[3]; Tamoxifen-1 group, 4 mg/kg i.g. daily, 4 mg/kg
  Average volume of new tumors at the end of the observation period (M): 0.16±0.05 cm^3 and 0.16 cm^3
[3]; [13]
  Absolute number of new tumors: 21
  Frequency of tumor stabilizations: 10%
[3]; Tamoxifen-1 group, end of observation
  Average volume of new tumors, % less than that of the control group: 52%
Uterine body [4]
  Uterine body weight: 31 ± 2 mg
[5]; all mice
  Body weight: 28.2 ± 1.0 g
[5]; estrous phase D
  Body weight: 30.5 g
[5]; estrous phase E
  Body weight: 28.0 ± 1.0 g

## CC(C)(C#N)c1cc(Cn2cncn2)cc(C(C)(C)C#N)c1 [anastrazole]
[6]
  BCS class: first class

## C[C@]12CC[C@@H]3c4ccc(OS(N)(=O)=O)cc4CC[C@H]3[C@@H]1CCC2=O [estrone sulfamate]
uterus
  Uterotropic activity: strong uterotropic activity

## N#Cc1ccc(C(c2ccc(C#N)cc2)n2cncn2)cc1 [letrozole]
[6]
  BCS class: first class
